The values below come from patent publication US4013657A, “O-ethyl-S-n-propyl-O-[pyridaz-(6)-on-(3)-yl]-thionothiolphosphoric acid esters” (priority 1973, dated 1977).

The test system of data set [1] is insects and acarids. As to conditions: prior-art compounds; cited from earlier work.
A short description of data set [2]: Toxicity test, albino rat/peroral. As to conditions: in vivo, po; albino rat; peroral; evaluation after 7 days. The procedure:
Test animal: Albino rat (Rattus norvegicus)
To produce a suitable preparation of active compound, 3 parts by weight of active compound were mixed with 2.8 parts by weight of highly disperse silica and 4.2 parts by weight of talc. Suspensions, which contained, in 1 ml of liquid, the amount of active compound to be adminstered per 100 g of animal weight, were prepared from the above active-compound concentrate, with addition of a little powdered vegetable gum, by trituration with water. The dosage was measured out volumetrically after weighing the test animals. It was administered orally by means of a steel knob-ended probe. The results were in each case evaluated at the end of the above-mentioned interval of time, calculated from the administration of the active compound.
The LD50 values (dose of active compound which kills 50% of the treated animals) was determined from the mortality values of the dose which were varied in geometrical progression, in the usual manner.
The active compounds and LD50 values can be seen from Table 5 which follows.

For data set [3], the system named is warm-blooded animals. The following applies: prior-art compounds; cited from earlier work.
The subject of data set [4] is two-spotted spider mite (Tetranychus urticae). The experiment in a line: Tetranychus test (resistant). As to conditions: 48 h, active compound concentration 0.1 %, after 2 days, resistant mites, read-out: Degree of destruction in % after 2 days. Format: in vivo. The procedure:
Tetranychus test (resistant)
(§1) Solvent: 3 parts by weight of acetone
(§2) Emulsifier: 1 part by weight of alkylaryl polyglycol ether
(§3) To produce a suitable preparation of active compound, 1 part by weight of the active compound was mixed with the stated amount of solvent containing the stated amount of emulsifier and the concentrate was diluted with water to the desired concentration.
These bean plants were heavily infested with the two-spotted spider mite (Tetranychus urticae) in all stages of development.
After the specified periods of time, the effectiveness of the preparation of active compound was determined by counting the dead mites. The degree of destruction thus obtained was expressed as a percentage: 100% means that all the spider mites were killed whereas 0% means that none of the spider mites were killed.
The active compounds, the concentrations of the active compounds, the evaluation times and the results can be seen from the following Table 3: […]

Data set [5] concerns caterpillars of the diamond-back moth (Plutella maculipennis). Description: Plutella test. It is filed as in vivo. As to conditions: 72 h, after 3 days, read-out: Degree of destruction in % after 3 days; for mortality at 0.1 %: active compound concentration 0.1 %. The method, then: as §1, §2, §3
Cabbage leaves (Brassica oleracea) were sprayed with the preparation of the active compound until dew moist and were then infested with caterpillars of the diamond-back moth (Plutella maculipennis).
After the specified periods of time, the degree of destruction was determined as a percentage: 100% means that all the caterpillars were killed, whereas 0% means that none of the caterpillars were killed.
The active compounds, the concentrations of the active compounds, the evaluation times and the results can be seen from the following Table 2.

The subject of data set [6] is fly larvae (Lucilia cuprina). The experiment in a line: Test with parasitic fly larvae/Lucilia cuprina res. The following applies: after 24 hours, resistant larvae, read-out: Degree of destruction in %. Format: in vivo. The method, then: Test with parasitic fly larvae
35 parts by weight of ethylene polyglycol monomethyl ether
35 parts by weight of nonylphenol polyglycol ether
To produce a suitable preparation of active compound, 30 parts by weight of the active substance in question were mixed with the stated amount of solvent which contained the above-mentioned proportion of emulsifier and the concentrate thus obtained was diluted with water to the desired concentration.
About 20 fly larvae (Lucilia cuprina) were introduced into a test tube which contained approximately 2 ml of horse muscle. 0.5 ml of the preparation of active compound was applied to this horse meat. After 24 hours, the degree of destruction in % was determined. 100% means that all the larvae had been killed and 0% means that no larvae had been killed.

Bounds are passed on as bounds.

On to `CCOP(=S)(OCC)Oc1n[nH]c(=O)c2ccccc12` [Compound A, O,O-diethyl-O-[phthalaz-(8)-on-(3)-yl]-thionophosphoric acid ester], for which the “insecticidal and acaricidal properties” value in data set [1] is “good insecticidal and acaricidal properties”. The compound also had an LD50 at 168 h in data set [2] of around 25 mg/kg. Also, the “toxicity to warm-blooded animals” value in data set [3] is “high toxicity to warm-blooded animals”. The mortality at 0.1 % in data set [4] and in data set [5] was 0% in each case.
Take `CCOP(=S)(OCC)Oc1ccc(=O)[nH]n1` [Compound B, O,O-diethyl-O-[pyridaz-(6)-on-(3)-yl]-thionophosphoric acid ester]: the “insecticidal and acaricidal properties” value in data set [1] is “good insecticidal and acaricidal properties”. The same compound returned a 50% lethal dose (LD50) at 168 h in data set [2] of 2.5 to 5 mg/kg. For the same compound, the “toxicity to warm-blooded animals” value in data set [3] is “high toxicity to warm-blooded animals”. The results for the mortality at 0.1 % in data set [4] and in data set [5] were 20% and 100%, respectively. Moreover, the mortality at 0.001 % in data set [5] (active compound concentration 0.001 %) is 0%. Moreover, the mortality at 0.01 % in data set [5] (active compound concentration 0.01 %) was found to be 80%. For the same compound, in data set [6] (active compound concentration 30 ppm), the mortality at 30 ppm was below 50%. The mortality at 300 ppm in data set [6] (active compound concentration 300 ppm) was 100%.
